Measurements from BindingDB's records for patent US11021481 (Nimbus Saturn, 2021).

Each molecule was assayed against Mitogen-activated protein kinase kinase kinase kinase 1 (Homo sapiens, UniProt Q92918) (assay: Biochemical Enzyme Assay).
Method: HPK1 biochemical enzyme assay: HPK1 enzyme inhibition was measured using a microfluidic mobility shift assay. […] Test compounds were titrated in ten point curves (top final assay concentration 3 μM), and preincubated with enzyme/substrate mix for 30 min prior to initiation of the reaction by addition of ATP (1 mM final concentration) and substrate (1 μM final concentration; Carna Biosciences) diluted in assay buffer supplemented by MgCl2 (final assay concentration of 5 mM). Following 60 min incubation at RT, the reaction was terminated by addition of 60 µl/well termination buffer (Carna Biosciences) and signal determination using aCaliper EZ Reader (Perkin Elmer, UK).

Sequence of Mitogen-activated protein kinase kinase kinase kinase 1 (Q92918 whole entry): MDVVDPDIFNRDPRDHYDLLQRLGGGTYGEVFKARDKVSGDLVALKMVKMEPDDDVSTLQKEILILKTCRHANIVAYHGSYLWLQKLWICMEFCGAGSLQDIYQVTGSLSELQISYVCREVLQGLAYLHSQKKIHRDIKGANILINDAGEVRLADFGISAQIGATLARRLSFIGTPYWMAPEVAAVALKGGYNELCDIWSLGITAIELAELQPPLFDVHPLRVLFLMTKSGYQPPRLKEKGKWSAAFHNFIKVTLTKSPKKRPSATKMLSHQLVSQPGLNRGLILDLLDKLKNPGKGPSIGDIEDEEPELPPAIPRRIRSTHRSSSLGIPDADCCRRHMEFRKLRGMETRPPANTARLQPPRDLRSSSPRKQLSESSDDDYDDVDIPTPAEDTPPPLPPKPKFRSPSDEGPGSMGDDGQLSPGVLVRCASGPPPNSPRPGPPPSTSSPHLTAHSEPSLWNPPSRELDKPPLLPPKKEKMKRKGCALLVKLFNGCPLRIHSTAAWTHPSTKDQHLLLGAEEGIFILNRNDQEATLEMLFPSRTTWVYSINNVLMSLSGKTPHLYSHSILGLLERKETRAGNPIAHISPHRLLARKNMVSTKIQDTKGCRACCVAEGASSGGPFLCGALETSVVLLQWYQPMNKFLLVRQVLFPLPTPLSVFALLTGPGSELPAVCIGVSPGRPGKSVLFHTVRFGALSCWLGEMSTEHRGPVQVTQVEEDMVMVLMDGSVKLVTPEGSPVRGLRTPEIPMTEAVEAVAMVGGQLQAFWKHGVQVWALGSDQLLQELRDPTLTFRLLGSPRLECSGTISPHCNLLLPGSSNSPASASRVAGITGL

| SMILES | IC50 |
| --- | --- |
| Cn1ccc2c1N=CNC2c1ccc(Nc2ccc(N3CCC(O)CC3)cn2)c2c1CNC2=O (stereo not given) [US11021481, Compound I-144] | < 0.1 µM |
| O=C1NCc2c(-c3cnc4ccccn34)ccc(Cc3ccn(C4CCOCC4)n3)c21 [US11021481, Compound I-382] | > 1 µM |
| CNC1CN(c2cccc(Nc3cnc(-c4ccnc5c4ccn5C)c4c3C(=O)NC4)c2)C1 [US11021481, Compound I-449] | < 0.1 µM |
| CC(C)(O)[C@@H]1CN(c2ccc(Nc3ccc(-c4cnc5c(C(F)F)cccn45)c4c3C(=O)NC4)nc2)CCO1 [US11021481, Compound I-475] | < 0.1 µM |
| Cc1ccn2c(-c3ncc(Nc4cccc(C5CC[C@@H]6CNC[C@H]56)n4)c4c3CNC4=O)cnc2c1F (stereo not given in full) [US11021481, Compound I-480] | in the range around 0.55 µM |
| Cc1ccn2c(-c3ncc(Nc4cccc(C5CCC6CNCC65)n4)c4c3CNC4=O)cnc2c1F (stereo not given) [US11021481, Compound I-481] | < 0.1 µM |
| Cc1ccnn2c(-c3ncc(Nc4ccc(C5CCOC5)c(CN(C)C)n4)c4c3CNC4=O)cnc12 (stereo not given) [US11021481, Compound I-539] | < 0.1 µM |
| C[C@@H]1CN(c2c(CN(C)C)cc(Nc3ccc(-c4cnc5cc(F)ccn45)c4c3C(=O)NC4)nc2CN(C)C)CCO1 [US11021481, Compound I-541] | < 0.1 µM |
| Cn1ccc2c(-c3ncc(Nc4ccc(C5CCOC5)c(CN5CCCC5)n4)c4c3CNC4=O)cccc21 (stereo not given) [US11021481, Compound I-552] | < 0.1 µM |
| Cc1ccn2c(-c3ccc(Nc4ccc(C5CCOC5)c(CN(C)C)n4)c4c3CNC4=O)cnc2c1 (stereo not given) [US11021481, Compound I-561] | < 0.1 µM |
| CN1CC(O)(C2CCCN(c3ccc(Nc4ccc(C5=CNC6C=C(F)C=CN56)c5c4C(=O)NC5)nc3)C2)C1 (stereo not given) [US11021481, Compound I-599] | < 0.1 µM |
| CN1CCN(c2nc(Nc3ccc(-c4cnc5cc(F)ccn45)c4c3C(=O)NC4)cnc2[C@H]2CCOC2)CC1 [US11021481, Compound I-801] | < 0.1 µM |
| CN1CCN(c2nc(Nc3ccc(-c4cnc5cc(F)ccn45)c4c3C(=O)NC4)cnc2[C@@H]2CCOC2)CC1 [US11021481, Compound I-802] | < 0.1 µM |
| CN(C)Cc1nc(Nc2cnc(-c3cccc4c3ccn4C)c3c2C(=O)NC3)ccc1O[C@@H]1CCOC1 [US11021481, Compound I-805] | < 0.1 µM |
| COCC1(O)CCN(c2ccc(Nc3ccc(-c4ccnc5c4ccn5C)c4c3C(=O)NC4)nc2CN(C)C)CC1 [US11021481, Compound I-851] | < 0.1 µM |
